# Experimental data reported in publication PMC4941645, “Oxidative Stress Induced by Pt(IV) Pro-drugs Based on the Cisplatin Scaffold and Indole Carboxylic Acids in Axial Position” (Scientific Reports, 2016).
# Legend:
# [1] = test system: A375 cells; experiment: ROS production (CM-H2DCFDA probe); assay type: cell-based, human; conditions: A375, 12.5 μM, compared with antimycin positive control
# Procedure: ROS are products of normal cell metabolism but their levels can be increased upon exposure to toxic agents or interference with the cellular redox network. […] Consequently, cellular ROS levels upon treatment with equal doses (12.5 μM) of the different platinum complexes were monitored in A375 cancer cells by using the peroxide-sensitive fluorescent probe CM-H2DCFDA (5-(and-6)-chloromethyl-2′,7′-dichlorodihydrofluorescein diacetate, acetyl ester). Antimycin, a classical inhibitor of the mitochondrial respiratory chain at the level of complex III, was used as a positive control.
# Figure 8 ROS production in A375 cells. Cells were preincubated in PBS/10 mM glucose medium for 20 min at 37 °C in the presence of 10 μM CM-DCFDA and then treated with equimolar doses (12.5 μM) of indole propionic acid Pt(IV) derivatives (panel A) or indole acetic acid Pt(IV) derivatives (panel B). The fluorescence of DCF was measured.
# The production of ROS was measured in A375 cells (10^4 per well) grown for 24 h in 96-well plates in DMEM medium without phenol red (Sigma Chemical Co.). Cells were then washed with PBS and loaded with 10 μM 5-(and-6)-chloromethyl-2′,7′-dichlorodihydrofluorescein diacetate, acetyl ester (CM–H2DCFDA) (Molecular Probes-Invitrogen) for 25 min in the dark. Afterwards, cells were washed with PBS and incubated with increasing concentrations of the tested complexes. The fluorescence increase was estimated with a plate reader (Fluoroskan Ascent FL, Labsystem, Finland) at 485 (excitation) and 527 nm (emission). Antimycin (3 μM, Sigma Chemical Co.), a potent inhibitor of Complex III in the electron transport chain, was used as positive control.
# [2] = test system: A375 cells; experiment: Hoechst 33258 staining, apoptosis morphology; assay type: cell-based, human; conditions: A375, IC50 doses, 48 h
# Procedure: A375 cells were seeded into 8-well tissue-culture slides (BD Falcon, Bedford, MA, USA) at 5 × 10^4 cells/well (0.8 cm^2).
# [3] = Reduction with ascorbic acid followed by 195Pt NMR; assay type: physicochemical; conditions: 1 eq. ascorbic acid, 37 °C
# Procedure: The reduction reaction of two representative complexes (1A and 1P) and the release of the indole carboxylic acid ligands was analyzed by HPLC using ascorbic acid as the reductant and 37 °C, pH 7 as physiological conditions (Fig. 4 and S1). The HPLC chromatograms of the reduction reaction of the complexes were compared with the chromatograms of pure samples of the carboxylic acid ligands. […] After 3 h incubation with 10 eq. of ascorbic acid 75% of 1P and 50% of 1A was reduced. […] We further studied the nature of the Pt(II) species produced upon the reduction of 1P and 1A by ^195Pt NMR. […] Unfortunately, monitoring the reduction reaction of the symetrically (2A and 2P) and unsymmetrically (3A–5A and 3P–5P) substituted dicarboxylato complexes was hampered by the poor solubility of the complexes in water and most organic solvents except DMF and DMSO. For the same reason the reduction potentials could not be determined by cyclic voltammetry. […]
# Compounds 1A and 1P (10 mM) were incubated at 37 °C, respectively, in the presence of 10 mM ascorbic acid in 12 mM HEPES buffer at pH 7. […] The ^195Pt NMR spectra were recorded by inserting a tube with D2O into the NMR tube.
# [4] = Reduction with ascorbic acid followed by HPLC; assay type: physicochemical; conditions: 10 eq. ascorbic acid, 37 °C, pH 7, HPLC; for complex reduced: 3 h incubation
# Procedure: The reduction reaction of two representative complexes (1A and 1P) and the release of the indole carboxylic acid ligands was analyzed by HPLC using ascorbic acid as the reductant and 37 °C, pH 7 as physiological conditions (Fig. 4 and S1). The HPLC chromatograms of the reduction reaction of the complexes were compared with the chromatograms of pure samples of the carboxylic acid ligands. […] After 3 h incubation with 10 eq. of ascorbic acid 75% of 1P and 50% of 1A was reduced. […] We further studied the nature of the Pt(II) species produced upon the reduction of 1P and 1A by ^195Pt NMR. […] Unfortunately, monitoring the reduction reaction of the symetrically (2A and 2P) and unsymmetrically (3A–5A and 3P–5P) substituted dicarboxylato complexes was hampered by the poor solubility of the complexes in water and most organic solvents except DMF and DMSO. For the same reason the reduction potentials could not be determined by cyclic voltammetry. However it has been reported that the reduction rate of cis,cis,trans-[Pt(NH3)2Cl2(RCOO)(OH)] monocarboxylato complexes is faster than that of dicarboxylato complexes and this has been attributed to the fact that hydroxido ligands are much better bridging ligands for electron transfer than carboxylate ligands.
# The reduction of the complexes 1A and 1P) with ascorbic acid was followed by HPLC using a Phenomenex Luna C18 ([…], 100 Å, 250 mm × 4.60 mm i.d.) column at a flow rate of 1.0 mL/min with 280 nm UV detection at room temperature. The mobile phase was 80:20 acetonitrile (1% trifluoroacetic acid) : water (1% trifluoroacetic acid). The complexes were dissolved in DMF (0.5 mL) and added to a 5 mM solution of ascorbic acid in 2 mM 4-(2-hydroxyethyl)piperazine-1-ethanesulfonic acid (HEPES) buffer (pH 7) and diluted to a final concentration of 0.5 mM using acetonitrile. The process was followed at 37 °C until complete reduction.
# [5] = test system: caspase-3; experiment: Caspase-3 activation; assay type: cell-based, human; conditions: A375, IC50 doses, 48 h
# Procedure: Caspase-3 cleavage reached values similar to that exerted by the well-known caspase-dependent apoptosis inducer staurosporine.
# Protein aliquots (100 μg) were stained at 37 °C for 60 min with fluorescent caspase-3 substrate N-acetyl-Asp-Glu-Val-Asp-AMC (AMC = 7-amino-4-methylcoumarin) (Sigma Co.). Substrate hydrolysis was measured after 60 min by monitoring the release of AMC using a spectrofluorimeter (excitation at 370 nm, emission at 460 nm).
# [6] = test system: A375 cells; experiment: Mitochondrial membrane potential; assay type: cell-based, human; conditions: A375, IC50 concentrations, 24 and 48 h
# Procedure: A persistent increase in the rate of ROS production is responsible for the accumulation of ROS. In turn, an increase in cellular ROS leads to the loss of the mitochondrial membrane potential (ΔΨm, MMP), thus possibly leading to the induction of apoptosis. The effect induced by the Pt(IV) complexes on the MMP was assessed by treating A375 cells with IC50 concentrations of 1P and 1A and evaluating the energization of treated melanoma cells in terms of the retention of the cationic fluorescent probe tetramethyl rhodamine methyl ester (TMRM).
# Figure 9 Effects of 1P and 1A on the cellular mitochondrial membrane potential. […] The percentage of cells with a hypopolarized mitochondrial membrane potential was determined fluorimetrically.
# The ΔΨm was assayed using the Mito-ID® Membrane Potential Kit according to the manufacturer’s instructions (Enzo Life Sciences, Farmingdale, NY). Briefly, A375 cells (8 × 10^3 per well) were seeded in 96-well plates, after 24 h, cells were washed with PBS and loaded with Mito-ID Detection Reagent for 30 min at 37 °C in the dark. Afterwards, cells were washed with PBS and incubated with increasing concentrations of the tested complexes. The fluorescence was estimated using a plate reader (Fluoroskan Ascent FL, Labsystem, Finland) at 490 (excitation) and 590 nm (emission).
# [7] = test system: A375 melanoma cells; experiment: Cellular accumulation of Pt (GF-AAS); assay type: cell-based, human; conditions: for cellular platinum accumulation (in words): A375, 1.5 and 3 μM, 6 and 24 h
compound,measurement,setting,value
CC(=O)[O][Pt]([NH2])([NH2])([Cl])([Cl])[O]C(=O)Cc1c[nH]c2ccccc12 [Complex 5A],ROS production (in words),[1],did not alter the cellular ROS concentration
"[NH2][Pt]([NH2])([OH])([Cl])([Cl])[O]C(=O)CCc1c[nH]c2ccccc12 [Complex 1P, cis,cis,trans-[Pt(NH3)2Cl2(IPA)(OH)]]",apoptotic morphology (in words),[2],morphological features typical of cells undergoing apoptosis
same,time to complete reduction,[3],24 h
same,time to complete reduction,[4],24 h
same,complex reduced,[4],75%
same,"caspase-3 activity, factor over untreated control cells",[5],~5
same,cells with decreased mitochondrial membrane potential (in words),[6],significant and time-dependent increase
same,ROS production (in words),[1],superior to that induced by antimycin
same,"cellular platinum, times greater than cisplatin","[7]; A375, 3 μM, 24 h, GF-AAS",about 2.3
same,cellular platinum accumulation (in words),[7],internalized most efficiently
[NH2][Pt]([NH2])([OH])([Cl])([Cl])[O]C(=O)Cc1c[nH]c2ccccc12 [Complex 1A],apoptotic morphology (in words),[2],morphological features typical of cells undergoing apoptosis
same,time to complete reduction,[3],30 h
same,time to complete reduction,[4],30 h
same,complex reduced,[4],50%
same,"caspase-3 activity, factor over untreated control cells",[5],~5
same,cells with decreased mitochondrial membrane potential (in words),[6],significant and time-dependent increase
[NH2][Pt]([NH2])([Cl])([Cl])([O]C(=O)CCC(=O)O)[O]C(=O)Cc1c[nH]c2ccccc12 [Complex 4A],ROS production (in words),[1],did not alter the cellular ROS concentration
same,cellular platinum accumulation (in words),[7],lowest platinum accumulation
same,"cellular uptake level, times lower than cisplatin","[7]; A375, GF-AAS",about 7
